Experimental data as given in PubChem BioAssay (NCI).
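1) Cells in 96-well plates. 2) Compound, 48 h, 5 concentrations. 3) Linear interpolation between surrounding doses. 4) Unreached endpoint = highest concentration. At the GI50, growth is halved. TGI denotes the concentration required for complete inhibition of growth.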

What was measured:
Test in all cases: NCI-60 cell line screen, 48 h
UACC-62 melanoma = tested on: UACC-62 melanoma
KM12 colon = tested on: KM12 colon
OVCAR-4 ovarian = tested on: OVCAR-4 ovarian
A498 renal = tested on: A498 renal
SF-295 CNS = tested on: SF-295 CNS
SK-MEL-28 melanoma = tested on: SK-MEL-28 melanoma
HOP-62 NSCLC = tested on: HOP-62 NSCLC
NCI/ADR-RES ovarian = tested on: NCI/ADR-RES ovarian
PC-3 prostate = tested on: PC-3 prostate
BT-549 breast = tested on: BT-549 breast

## CC(C)=CCC/C(C)=C/CC/C(C)=C/C1CCC(=O)C1(C)C (configuration not stated)
UACC-62 melanoma
  TGI: 50.6 µM
KM12 colon
  TGI: 32.7 µM
OVCAR-4 ovarian
  TGI: 66 µM
A498 renal
  TGI: 36.9 µM
SF-295 CNS
  TGI: 33 µM
SK-MEL-28 melanoma
  TGI: 54 µM
HOP-62 NSCLC
  TGI: 69.6 µM

## OCCCCCNc1ccnc2cc(Cl)ccc12
UACC-62 melanoma
  TGI: > 100 µM
KM12 colon
  TGI: > 100 µM
OVCAR-4 ovarian
  TGI: > 100 µM
A498 renal
  TGI: > 100 µM
SF-295 CNS
  TGI: > 100 µM
SK-MEL-28 melanoma
  TGI: > 100 µM
HOP-62 NSCLC
  TGI: > 100 µM

## COc1ccc2c(c1OC)C(C=C(c1ccccc1)c1ccccc1)CN(C)C2 (configuration not stated)
UACC-62 melanoma
  TGI: 40.2 µM
KM12 colon
  TGI: 48.9 µM
OVCAR-4 ovarian
  TGI: > 100 µM
A498 renal
  TGI: 65 µM
SF-295 CNS
  TGI: 80.3 µM
SK-MEL-28 melanoma
  TGI: 57.9 µM
HOP-62 NSCLC
  TGI: 62.2 µM

## COc1c(Cl)[c]([Hg][O]C(C)=O)c(NCC(C)=O)c(OC)[c]1[Hg][O]C(C)=O
KM12 colon
  GI50: 31.7 µM
  TGI: > 100 µM
OVCAR-4 ovarian
  GI50: 20 µM
  TGI: 79.7 µM
A498 renal
  GI50: 26.7 µM
  TGI: 71 µM
SF-295 CNS
  GI50: 20.2 µM
  TGI: 45.2 µM
SK-MEL-28 melanoma
  GI50: 13.3 µM
  TGI: 26.2 µM
HOP-62 NSCLC
  GI50: 22.3 µM
  TGI: 37.3 µM

## CC(C)(C)C1CCC(=O)C(C(O)CC2CC(=O)N(c3ccccc3)C(=O)C2)C1 (configuration not stated)
UACC-62 melanoma
  TGI: > 100 µM
KM12 colon
  TGI: > 100 µM
OVCAR-4 ovarian
  TGI: > 100 µM
A498 renal
  TGI: > 100 µM
SF-295 CNS
  TGI: > 100 µM
SK-MEL-28 melanoma
  TGI: > 100 µM
HOP-62 NSCLC
  TGI: > 100 µM

## CC(C)C1NC(=O)[C@H](C)OC(=O)[C@@H](C(C)C)NC(=O)[C@@H](C)OC(=O)C(C(C)C)NC(=O)[C@H](C)OC1=O (some centres not stated)
UACC-62 melanoma
  TGI: > 100 µM
KM12 colon
  TGI: > 100 µM
OVCAR-4 ovarian
  TGI: > 100 µM
A498 renal
  TGI: > 100 µM
SF-295 CNS
  TGI: > 100 µM
SK-MEL-28 melanoma
  TGI: > 100 µM
HOP-62 NSCLC
  TGI: > 100 µM

## CNC(=S)N(C1CCCCC1)C1CCCCC1
UACC-62 melanoma
  TGI: > 100 µM
KM12 colon
  TGI: > 100 µM
OVCAR-4 ovarian
  TGI: > 100 µM
NCI/ADR-RES ovarian
  TGI: > 100 µM
SF-295 CNS
  TGI: > 100 µM
PC-3 prostate
  TGI: > 100 µM
SK-MEL-28 melanoma
  TGI: > 100 µM
HOP-62 NSCLC
  TGI: > 100 µM

## Cc1nc2ccccc2c(/C=C/c2ccccc2)c1C(=O)/C=C/c1ccccc1
BT-549 breast
  GI50: 1.73 µM
  TGI: 3.67 µM
UACC-62 melanoma
  GI50: 1.77 µM
  TGI: 3.23 µM
KM12 colon
  GI50: 1.97 µM
  TGI: 4.7 µM
NCI/ADR-RES ovarian
  GI50: 2.71 µM
  TGI: 8.35 µM
A498 renal
  GI50: 1.83 µM
  TGI: 3.46 µM
SF-295 CNS
  GI50: 2.8 µM
  TGI: 8.36 µM
SK-MEL-28 melanoma
  GI50: 1.83 µM
  TGI: 3.3 µM
HOP-62 NSCLC
  GI50: 1.9 µM
  TGI: 4.1 µM

## CC(=O)OC1(C#N)CC2OC1C1N=NN(C(=O)OC(C)(C)C)C21 (configuration not stated)
UACC-62 melanoma
  TGI: 42.2 µM
KM12 colon
  TGI: > 100 µM
OVCAR-4 ovarian
  TGI: > 31.6 µM
A498 renal
  TGI: > 100 µM
SF-295 CNS
  TGI: > 100 µM
SK-MEL-28 melanoma
  TGI: 35.6 µM
HOP-62 NSCLC
  TGI: > 100 µM

## COc1cc2c(cc1OC)-c1ncc3cc(OC)c(OC)cc3c1C2
UACC-62 melanoma
  GI50: > 50 µM
  TGI: > 50 µM
KM12 colon
  GI50: > 50 µM
  TGI: > 50 µM
OVCAR-4 ovarian
  GI50: > 50 µM
  TGI: > 50 µM
NCI/ADR-RES ovarian
  GI50: > 50 µM
  TGI: > 50 µM
SF-295 CNS
  GI50: > 50 µM
  TGI: > 50 µM
PC-3 prostate
  GI50: > 50 µM
  TGI: > 50 µM
SK-MEL-28 melanoma
  GI50: > 50 µM
  TGI: > 50 µM

## [N-]=[N+]=NC1C2CC3CC(C2)CC1C3 (configuration not stated)
UACC-62 melanoma
  TGI: > 100 µM
KM12 colon
  TGI: > 100 µM
OVCAR-4 ovarian
  TGI: > 100 µM
A498 renal
  TGI: > 100 µM
SF-295 CNS
  TGI: > 100 µM
SK-MEL-28 melanoma
  TGI: > 100 µM
HOP-62 NSCLC
  TGI: > 100 µM

## CCC(C)(C)NS(=O)(=O)c1ccccc1
UACC-62 melanoma
  TGI: > 100 µM
KM12 colon
  TGI: > 100 µM
OVCAR-4 ovarian
  TGI: > 100 µM
A498 renal
  TGI: > 100 µM
SF-295 CNS
  TGI: > 100 µM
SK-MEL-28 melanoma
  TGI: > 100 µM
HOP-62 NSCLC
  TGI: > 100 µM

## CC1(C)Oc2ccccc2[N+]([O-])=C1c1ccccc1
UACC-62 melanoma
  TGI: > 100 µM
OVCAR-4 ovarian
  TGI: > 100 µM
A498 renal
  TGI: > 100 µM
SF-295 CNS
  TGI: > 100 µM
SK-MEL-28 melanoma
  TGI: > 100 µM
HOP-62 NSCLC
  TGI: > 100 µM

## Cc1nc(-n2nc(-c3ccccc3)cc2-c2ccccc2)sc1C(=O)/C=C/c1ccc(Cl)cc1
UACC-62 melanoma
  TGI: 28.7 µM
KM12 colon
  TGI: 25.6 µM
A498 renal
  TGI: 83.3 µM
SF-295 CNS
  TGI: 30.5 µM
SK-MEL-28 melanoma
  TGI: 33.6 µM
HOP-62 NSCLC
  TGI: 34.4 µM

## C/C(=N\NS(=O)(=O)c1c(C)cc(C)cc1C)c1ccc[n+]([O-])n1
UACC-62 melanoma
  TGI: 31.5 µM
KM12 colon
  TGI: > 100 µM
OVCAR-4 ovarian
  TGI: 44.6 µM
A498 renal
  TGI: 86.6 µM
SF-295 CNS
  TGI: > 100 µM
SK-MEL-28 melanoma
  TGI: 27.6 µM
HOP-62 NSCLC
  TGI: > 100 µM

## COC(=O)C1=C(O)c2cc3c(cc2[C@H](c2cc(OC)c(OC)c(OC)c2)C1)OCO3
UACC-62 melanoma
  TGI: 27.9 µM
KM12 colon
  TGI: 54.3 µM
OVCAR-4 ovarian
  TGI: > 100 µM
A498 renal
  TGI: 61.7 µM
SF-295 CNS
  TGI: > 100 µM
SK-MEL-28 melanoma
  TGI: > 100 µM
HOP-62 NSCLC
  TGI: > 100 µM

## COC(=O)c1ccc(/C=C/S(=O)(=O)c2ccccc2)cc1
UACC-62 melanoma
  TGI: > 100 µM
KM12 colon
  TGI: > 100 µM
OVCAR-4 ovarian
  TGI: > 100 µM
A498 renal
  TGI: > 100 µM
SF-295 CNS
  TGI: > 100 µM
SK-MEL-28 melanoma
  TGI: > 100 µM
HOP-62 NSCLC
  TGI: > 100 µM

## COc1ccc2c(c1)c(-c1ccc(-c3cn(C)c4ccc(OC)cc34)o1)cn2C
BT-549 breast
  GI50: 5.11 µM
  TGI: 18.2 µM
UACC-62 melanoma
  GI50: 3.81 µM
  TGI: 15.9 µM
KM12 colon
  GI50: 2.73 µM
  TGI: 7.08 µM
OVCAR-4 ovarian
  GI50: 2.06 µM
  TGI: 4.08 µM
NCI/ADR-RES ovarian
  GI50: 3.86 µM
  TGI: 16.6 µM
A498 renal
  GI50: > 100 µM
  TGI: > 100 µM
SF-295 CNS
  GI50: 13.4 µM
  TGI: 62.6 µM
SK-MEL-28 melanoma
  GI50: 14 µM
  TGI: 80.1 µM
HOP-62 NSCLC
  GI50: > 100 µM
  TGI: > 100 µM
